Data taken from publication PMC6804135, “Comparative Study of Aryl O-, C-, and S-Mannopyranosides as Potential Adhesion Inhibitors toward Uropathogenic E. coli FimH” (Molecules, 2019).
Like-named read-outs stand apart in the source and are kept apart here.

Key:
E. coli FimH [1] = molecular target: T1, E. coli FimH (Escherichia coli, UniProt Q1R2J4); experiment: SPR kinetic analysis of FimH against immobilized 6-aminohexyl α-D-mannopyranoside (4); type: binding; set-up: The FimH residues 1-158 were isolated from the E. coli strain UTI89; made in house; conditions: for Kd: KD = koff/kon
Description: First, the equilibrium dissociation constant (KD) of FimH against immobilized 6-aminohexyl α-D-mannopyranoside (4) was determined. The ligand 6-aminohexyl α-D-mannopyranoside (10 mM in H2O) was immobilized via standard amine carbodiimide coupling chemistry (and blocking with ethanolamine as per the manufacturer’s procedure) to obtain 364 response units (RU) (see sensorgram in SI). The reference channel was treated similarly without ligand. A concentration series of the analyte FimH (1024 to 8 nM in running buffer, 2-fold dilutions) was then injected over the surface (700 s association time; 1200 s dissociation time; 30 μL/min flow rate; 25 °C temperature; running buffer: PBS pH 7.45, 3 mM EDTA supplemented with 0.005% Tween-20; regeneration: 30 s of 10 mM Glycine pH 1.5) and the response was double-referenced by subtracting the reference channel and the response with no FimH (running buffer only). Since equilibrium could not be reached during injection, KD was obtained from the extracted kinetic rate constants (KD = koff / kon) from a non-linear globally fitted 1:1 Langmuir binding isotherm containing a mass transfer constant (tc) and locally fitted refractive index constant (RI) (Biacore T200 evaluation software v1.0, GE Healthcare Life Sciences) of the obtained sensorgrams.

E. coli FimH [2] = molecular target: T1, E. coli FimH; experiment: SPR solution affinity (competition) of ligands for FimH on immobilized 6-aminohexyl α-D-mannopyranoside; type: binding; set-up: The FimH residues 1-158 were isolated from the E. coli strain UTI89; made in house; conditions: for Relative Potency: relative to MeαMan (1) = 1; for ΔG°: from SPR Kd
Text: To this end, we first immobilized 6-aminohexyl α-D-mannopyranoside (4) on the CM5 gold chip using the conventional carbodiimide method to which we allowed FimH to bind with and without our competitive inhibitors (see sensorgram of 4 in the SI). The equilibrium dissociation constant (Kd) of the interaction was then normalized, the data sets are illustrated in Figure 5 and values given in Table 1 (see experimental details). This modification from the previous protocol using 8-aminooctyl α-D-mannoside was found much more practical and reliable given its very high affinity to FimH which made the gold chip regeneration from sample to sample too complicated (very slow koff).
SPR Solution Affinity of Ligands for the E. coli FimH Adhesin
Second, the equilibrium dissociation constants (KD) of FimH against the compounds of interest were determined by measuring the amount of free FimH in a series of concentrations of the compounds of interest at a constant concentration of FimH (close to the Kd of FimH: 6-aminohexyl α-D-mannopyranoside) after equilibrium in solution. A concentration series of the ligand of interest (65536 to 0.5 nM in running buffer, 2-fold dilutions) was equilibrated overnight with analyte FimH (40 nM) and then injected over the previous ligand 6-aminohexyl α-D-mannopyranoside-immobilized surface (300 s association time; 300 s dissociation time; 30 μL/min flow rate; 25 °C temperature; running buffer: 5% DMSO, PBS pH 7.45, 3 mM EDTA supplemented with 0.05% Tween-20; regeneration: 30 s of 10 mM Glycine pH 1.5) and the response was single-referenced by subtracting the reference channel and solvent corrected with a DMSO calibration curve. Since equilibrium could not be reached during injection, the responses (free [FimH], Y-axis) at the end of the injections were normalized with the response from FimH only ([compound of interest] = 0) and then plotted over the compounds of interest concentrations (X-axis).

E. coli FimH [3] = molecular target: T1, E. coli FimH; experiment: Previously reported SPR Kd against FimH; type: binding; set-up: The FimH residues 1-158 were isolated from the E. coli strain UTI89; made in house; conditions: 5 versus 7; from Kd values of ref 18
E. coli FimH [4] = molecular target: T1, E. coli FimH; set-up: The FimH residues 1-158 were isolated from the E. coli strain UTI89; made in house; conditions: read-out: Kd (SPR), cited from earlier work
E. coli FimH [5] = molecular target: T1, E. coli FimH; set-up: The FimH residues 1-158 were isolated from the E. coli strain UTI89; made in house; conditions: read-out: IC50 (SPR); cited from earlier work
E. coli FimH [6] = molecular target: T1, E. coli FimH; conditions: from IC50 values of ref 20

| Structure (SMILES) | Kd (E. coli FimH [2]) [nM] | Relative Potency (E. coli FimH [2]) | ΔG° (E. coli FimH [2]) [kcal/mol] | other results |
| --- | --- | --- | --- | --- |
| NCCCCCCO[C@H]1O[C@H](CO)[C@@H](O)[C@H](O)[C@@H]1O [Compound 4, 6-aminohexyl α-D-mannopyranoside] | – | – | – | Kd (E. coli FimH [1]; KD, fitted constant): 38.6 nM; Kd (E. coli FimH [1]; Kd, immobilized ligand 4, FimH as analyte, 25 °C, PBS pH 7.45): 38.58 ± 0.11 nM; dissociation rate constant (koff) (E. coli FimH [1]; fitted constant (dissociation rate), 1:1 Langmuir with mass transfer): 2,06E-04 1/s; kon (E. coli FimH [1]; read-out: ka): 5340 M⁻¹ s⁻¹; Relative Potency (E. coli FimH [1]; relative to MeαMan (1) = 1, immobilized ligand 4): 12 |
| OCC1OC(OCC=Cc2ccc(-c3ccccc3)cc2)C(O)C(O)C1O (stereo not shown) [Compound 5] | 19.9 ± 1.22 | 24 | – | fold better Kd than 7 (E. coli FimH [3]): 135 fold; Kd (E. coli FimH [4]): 3 nM |
| OCC1OC(CC=Cc2ccc(-c3ccccc3)cc2)C(O)C(O)C1O (stereo not shown) [Compound 6] | 11.4 ± 0.63 | 42 | – | – |
| OC[C@H]1O[C@H](OCC#Cc2ccc(-c3ccccc3)cc2)[C@@H](O)[C@@H](O)[C@@H]1O [Compound 7] | – | – | – | Kd (E. coli FimH [4]): 405 nM |
| OCC1OC(SCC=Cc2ccc(-c3ccccc3)cc2)C(O)C(O)C1O [Compound 12, (2E)-3-(1,1’-biphenyl-2-propen-1-yl) 1-thio-α-D-mannopyranoside] | 94.4 ± 6.2 | 5 | – | difference in respective Kds between 5 and 12 (E. coli FimH [2]; O-linked 5 versus S-linked 12): about 5 fold |
| CCCCCCCO[C@H]1O[C@H](CO)[C@@H](O)[C@H](O)[C@@H]1O [HeptylαMan (3), Heptyl α-D-mannopyranoside] | 2.37 ± 0.5 | 200 | -11.76 | Kd (E. coli FimH [4]; reported value for the golden standard): 5 nM; IC50 (E. coli FimH [5]): 160 nM |
| CO[C@H]1O[C@H](CO)[C@@H](O)[C@H](O)[C@@H]1O [MeαMan (1), Methyl α-D-mannopyranoside] | 475 ± 5.7 | 1 | -8.62 | – |
| O=[N+]([O-])c1ccc(O[C@H]2O[C@H](CO)[C@@H](O)[C@H](O)[C@@H]2O)cc1 [PNPαMan (2), para-nitrophenyl α-D-mannopyranoside] | 4.21 ± 0.72 | 113 | -11.42 | – |
| CCCCCCCS[C@H]1O[C@H](CO)[C@@H](O)[C@H](O)[C@@H]1O [S-linked heptyl α-D-mannopyranoside] | – | – | – | difference between O- and S-linked heptyl α-D-mannopyranosides (E. coli FimH [6]): 3.4 fold; IC50 (E. coli FimH [5]): 547 nM |
